Source: patent US10633407B2, “14-membered ketolides and methods of their preparation and use” (President and Fellows of Harvard College, priority 2014, dated 2020)
Converted amounts (≈) assume the structure as drawn.

Legend:
Test in all cases: CLSI broth dilution MIC determination
Type in all cases: cell-based
[1] = test system: E. coli ATCC 25922; details: E. coli ATCC 25922; Gram-negative
Procedure, shortened: (§1)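 The lowest inhibitory concentration was found by broth dilution done to CLSI standards. Resistance genotypes on the panel can be constitutive or inducible, and azithromycin and solithromycin accompany many tests as reference macrolides.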

[2] = test system: E. coli CTX-M-14; details: Gram-negative
Procedure, shortened: as §1

[3] = test system: E. coli NDM-1; details: Gram-negative
Procedure, shortened: as §1

[4] = test system: E. coli TEM-1; details: E. coli TEM-1; Gram-negative
Procedure, shortened: as §1

[5] = test system: H. influenzae ATCC49247; details: Gram-negative
Procedure, shortened: as §1

[6] = test system: K. pneumoniae TEM-10; details: Gram-negative
[7] = test system: S. aureus ATCC 29213; details: S. aureus ATCC 29213; Gram-positive
Procedure, shortened: as §1

[8] = test system: S. aureus MRSA: USA100; details: S. aureus MRSA: USA100; Gram-positive
Procedure, shortened: as §1

[9] = test system: S. aureus MRSA: USA300; details: S. aureus MRSA: USA300; Gram-positive
Procedure, shortened: as §1

[10] = test system: S. aureus USA600, GISA; details: S. aureus USA600, GISA; Gram-positive
Procedure, shortened: as §1

[11] = test system: S. aureus erm A genotype; details: S. aureus erm A genotype; Gram-positive
Procedure, shortened: as §1

[12] = test system: S. pneumoniae ATCC 49619; details: S. pneumoniae ATCC 49619; Gram-positive
Procedure, shortened: as §1

[13] = test system: S. pneumoniae erm B + mef A genotype; details: S. pneumoniae erm B + mef A genotype; Gram-positive
Procedure, shortened: as §1

[14] = test system: S. pneumoniae mef A genotype (second strain so labelled); details: Gram-positive
Procedure, shortened: as §1

[15] = test system: S. pyogenes ATCC 19615; details: S. pyogenes ATCC 19615; Gram-positive
[16] = test system: S. pyogenes Macrolide-resistant; details: S. pyogenes Macrolide-resistant; Gram-positive
[17] = test system: E. faecalis ATCC 29212; details: E. faecalis ATCC 29212; Gram-positive
[18] = test system: E. faecalis Vancomycin-resistant; details: E. faecalis Vancomycin-resistant; Gram-positive
[19] = test system: A. baumannii ATCC 19606; details: A. baumannii ATCC 19606; Gram-negative
[20] = test system: A. baumannii imipenem-resistant; details: Gram-negative
[21] = test system: A. baumannii chromosomal class C; details: Gram-negative
[22] = test system: A. baumannii IMP-4; details: Gram-negative
[23] = test system: K. pneumoniae ATCC 10031; details: K. pneumoniae ATCC 10031; Gram-negative
[24] = test system: K. pneumoniae KPC-2; details: Gram-negative
[25] = test system: K. pneumoniae SHV-12; details: Gram-negative
[26] = test system: P. aeruginosa ATCC 27853; details: P. aeruginosa ATCC 27853; Gram-negative
[27] = test system: P. aeruginosa HPA101-1477; details: Gram-negative
[28] = test system: H. influenzae Erythro >4, Azithro 1; details: H. influenzae Erythro >4, Azithro 1; Gram-negative
Description: MIC data was collected for the novel macrolides that this platform has produced against over 21 unique strains of B. subtilis, E. coli, S. aureus, S. pneumoniae, and H. influenzae, including several multidrug-resistant strains, with a special focus on macrolide resistant mechanisms (vide supra). […] CLSI standard procedures for broth dilution MIC determination were used. […] These genotypes can be constitutive or inducible.

SMILES | MIC [1] [µg/mL] | MIC [2] [µg/mL] | MIC [3] [µg/mL] | MIC [4] [µg/mL] | MIC [5] [µg/mL] | MIC [6] [µg/mL] | MIC [7] [µg/mL] | MIC [8] [µg/mL] | MIC [9] [µg/mL] | MIC [10] [µg/mL] | MIC [11] [µg/mL] | MIC [12] [µg/mL] | MIC [13] [µg/mL] | MIC [14] [µg/mL] | MIC [15] [µg/mL] | MIC [16] [µg/mL] | MIC [17] [µg/mL] | MIC [18] [µg/mL] | MIC [19] [µg/mL] | MIC [20] [µg/mL] | also measured
CC[C@H]1OC(=O)[C@H](C)C(=O)[C@H](C)[C@@H](O[C@@H]2OC(C)CC(N(C)C)C2O)[C@](C)(OC)C[C@@H](C)C(=O)[C@H](C)[C@H]2N(CC3CC3Cn3cc(-c4cccc(N)c4)nn3)C(=O)O[C@]12C (stereo partly shown) [FSM-100429] | > 32 | > 32 | > 32 | > 32 | > 32 | > 32 | 0.125 (≈ 0.149 µM) | > 32 | > 32 | > 32 | > 32 | < 0.0312 | > 32 | 0.0625 (≈ 0.0745 µM) | < 0.0312 | < 0.0312 | < 0.0312 | > 32 | > 32 | 32 (≈ 38.1 µM) | MIC [21]: 32 µg/mL (≈ 38.1 µM); MIC [22]: > 32 µg/mL; MIC [23]: 32 µg/mL (≈ 38.1 µM); MIC [24]: > 32 µg/mL; MIC [25]: > 32 µg/mL; MIC [26]: > 32 µg/mL; MIC [27]: > 32 µg/mL; MIC [28]: > 32 µg/mL
CC[C@H]1OC(=O)[C@@](C)(F)C(=O)[C@H](C)[C@@H](O[C@@H]2OC(C)CC(N(C)C)C2O)[C@](C)(OC)C[C@@H](C)C(=O)[C@H](C)[C@H]2N(C/C=C/Cn3cc(-c4nccs4)nn3)C(=O)O[C@]12C (stereo partly shown) [FSM-11562] | 16 (≈ 19.2 µM) | > 32 | > 32 | 16 (≈ 19.2 µM) | 4 (≈ 4.79 µM) | 32 (≈ 38.3 µM) | 0.0625 (≈ 0.0748 µM) | > 32 | 1 (≈ 1.2 µM) | > 32 | > 32 | ≤ 0.0312 | 0.25 | 0.0625 (≈ 0.0748 µM) | ≤ 0.0312 | 0.125 (≈ 0.15 µM) | ≤ 0.0312 | > 32 | 8 (≈ 9.58 µM) | 8 (≈ 9.58 µM) | MIC [21]: 8 µg/mL (≈ 9.58 µM); MIC [22]: > 32 µg/mL; MIC [23]: 4 µg/mL (≈ 4.79 µM); MIC [24]: > 32 µg/mL; MIC [25]: > 32 µg/mL; MIC [26]: > 32 µg/mL; MIC [27]: > 32 µg/mL; MIC [28]: 2 µg/mL (≈ 2.4 µM)
CC[C@H]1OC(=O)[C@@](C)(F)C(=O)[C@H](C)[C@@H](O[C@@H]2OC(C)CC(N(C)C)C2O)[C@](C)(OC)C[C@@H](C)C(=O)[C@H](C)[C@H]2N(C/C=C/Cn3cc(-c4cnc(N)s4)nn3)C(=O)O[C@]12C (stereo partly shown) [FSM-100240] | > 32 | > 32 | > 32 | 32 (≈ 37.6 µM) | 1 (≈ 1.18 µM) | 32 (≈ 37.6 µM) | ≤ 0.0312 | > 32 | 1 (≈ 1.18 µM) | > 32 | > 32 | ≤ 0.0312 | 0.125 | 0.25 (≈ 0.294 µM) | ≤ 0.0312 | 0.25 (≈ 0.294 µM) | ≤ 0.0312 | 8 (≈ 9.41 µM) | 32 (≈ 37.6 µM) | 32 (≈ 37.6 µM) | MIC [21]: 16 µg/mL (≈ 18.8 µM); MIC [22]: > 32 µg/mL; MIC [23]: 4 µg/mL (≈ 4.71 µM); MIC [24]: > 32 µg/mL; MIC [25]: > 32 µg/mL; MIC [26]: > 32 µg/mL; MIC [27]: > 32 µg/mL; MIC [28]: 1 µg/mL (≈ 1.18 µM)
CC[C@H]1OC(=O)[C@H](C)C(=O)[C@H](C)[C@@H](O[C@@H]2OC(C)CC(N(C)C)C2O)[C@](C)(OC)C[C@@H](C)C(=O)[C@H](C)[C@H]2N(CC#CCn3cc(-c4cccc(N)c4)nn3)C(=O)O[C@]12C (stereo partly shown) [FSM-100239] | 16 (≈ 19.4 µM) | > 32 | > 32 | 16 (≈ 19.4 µM) | 1 (≈ 1.22 µM) | 32 (≈ 38.9 µM) | ≤ 0.0312 | > 32 | 0.25 (≈ 0.304 µM) | > 32 | > 32 | ≤ 0.0312 | 0.0625 | ≤ 0.0312 | ≤ 0.0312 | ≤ 0.0312 | ≤ 0.0312 | 16 (≈ 19.4 µM) | 8 (≈ 9.72 µM) | 4 (≈ 4.86 µM) | MIC [21]: 2 µg/mL (≈ 2.43 µM); MIC [22]: > 32 µg/mL; MIC [23]: 4 µg/mL (≈ 4.86 µM); MIC [24]: > 32 µg/mL; MIC [25]: > 32 µg/mL; MIC [26]: > 32 µg/mL; MIC [27]: > 32 µg/mL; MIC [28]: 1 µg/mL (≈ 1.22 µM)
CC[C@H]1OC(=O)[C@H](C)C(=O)[C@H](C)[C@@H](O[C@@H]2OC(C)CC(N(C)C)C2O)[C@](C)(OC)C[C@@H](C)C(=O)[C@H](C)[C@H]2N(C/C=C/Cn3nnc(-c4ccccn4)n3)C(=O)O[C@]12C (stereo partly shown) [FSM-100371] | > 32 | > 32 | > 32 | > 32 | 2 (≈ 2.46 µM) | > 32 | < 0.0312 | > 32 | 4 (≈ 4.93 µM) | > 32 | > 32 | < 0.0312 | 0.25 | 0.125 (≈ 0.154 µM) | < 0.0312 | 0.0625 (≈ 0.077 µM) | < 0.0312 | > 32 | 16 (≈ 19.7 µM) | > 32 | MIC [21]: 32 µg/mL (≈ 39.4 µM); MIC [22]: > 32 µg/mL; MIC [23]: 8 µg/mL (≈ 9.85 µM); MIC [24]: > 32 µg/mL; MIC [25]: > 32 µg/mL; MIC [26]: > 32 µg/mL; MIC [27]: > 32 µg/mL; MIC [28]: 2 µg/mL (≈ 2.46 µM)
CC[C@H]1OC(=O)[C@@](C)(F)C(=O)[C@H](C)[C@@H](O[C@@H]2OC(C)CC(N(C)C)C2O)[C@](C)(OC)C[C@@H](C)C(=O)[C@H](C)[C@H]2N(C/C=C/Cn3nnnc3-c3ccccn3)C(=O)O[C@]12C (stereo partly shown) [FSM-100386] | 16 (≈ 19.3 µM) | > 32 | > 32 | 16 (≈ 19.3 µM) | 4 (≈ 4.82 µM) | > 32 | < 0.0312 | > 32 | 4 (≈ 4.82 µM) | > 32 | > 32 | < 0.0312 | 0.25 | 0.0625 (≈ 0.0753 µM) | < 0.0312 | 0.0625 (≈ 0.0753 µM) | < 0.0312 | > 32 | 32 (≈ 38.6 µM) | > 32 | MIC [21]: 32 µg/mL (≈ 38.6 µM); MIC [22]: > 32 µg/mL; MIC [23]: 8 µg/mL (≈ 9.64 µM); MIC [24]: > 32 µg/mL; MIC [25]: > 32 µg/mL; MIC [26]: > 32 µg/mL; MIC [27]: > 32 µg/mL; MIC [28]: 2 µg/mL (≈ 2.41 µM)
CC[C@H]1OC(=O)[C@H](C)C(=O)[C@H](C)[C@@H](O[C@@H]2OC(C)CC(N(C)C)C2O)[C@](C)(OC)C[C@@H](C)C(=O)[C@H](C)[C@H]2N(C/C=C/Cn3nnnc3-c3ccccn3)C(=O)O[C@]12C (stereo partly shown) [FSM-100376] | 8 (≈ 9.85 µM) | > 32 | > 32 | 16 (≈ 19.7 µM) | 1 (≈ 1.23 µM) | 32 (≈ 39.4 µM) | < 0.0312 | > 32 | 8 (≈ 9.85 µM) | > 32 | > 32 | < 0.0312 | 0.25 | < 0.0312 | < 0.0312 | < 0.0312 | < 0.0312 | > 32 | 16 (≈ 19.7 µM) | 32 (≈ 39.4 µM) | MIC [21]: 16 µg/mL (≈ 19.7 µM); MIC [22]: > 32 µg/mL; MIC [23]: 8 µg/mL (≈ 9.85 µM); MIC [24]: > 32 µg/mL; MIC [25]: > 32 µg/mL; MIC [26]: 32 µg/mL (≈ 39.4 µM); MIC [27]: > 32 µg/mL; MIC [28]: 1 µg/mL (≈ 1.23 µM)
